Data on two compounds can be found in article PMC8070745, “FEN1 Blockade for Platinum Chemo-Sensitization and Synthetic Lethality in Epithelial Ovarian Cancers” (Cancers, 2021).

Common to all, as to type: cell-based, human
The subject of assay [1] is FEN1 mRNA in A2780cis cells. Put plainly: qRT-PCR FEN1 mRNA expression, A2780cis. The conditions noted are these: 24 h exposure to cisplatin. Here is the method:
(1:200, ab26343). Infrared dye-labelled secondary antibodies (Li-Cor) [IRDye 800CW Donkey Anti-Rabbit IgG and IRDye 680CW Donkey Anti-Mouse IgG] were incubated at a dilution of 1:10000 for 1 h. Membranes were scanned with a LiCor Odyssey machine (700 and 800 nm) to determine protein expression. ß-Tubulin or ß-actin was used as a loading controls for the whole cell lysates. GADPH and YYI were used as loading controls to cytoplasmic and nuclear fractions, respectively. First incubation was with FEN1 antibody and then imaged. This was followed by incubation with loading control and then imaged for analysis. Bar charts show means of optical density (O.D.) ± S.D and all data is representative of at least three independent experiments. qRT-PCR analysis of FEN1 gene expre ssion: RNA was extracted using the RNeasy Mini Kit (74104, Qiagen) and quantified using a Nanodrop 2000c (Thermo Fisher Scientific). cDNA synthesis was performed using the RT2 First Strand Kit (330404, Qiagen). Real time PCR was carried out on an Applied Biosystems […] FAST cycler.
Neutral COMET assay: 1.0x10^5 cells per well were seeded in 6 well tissue culture plates and incubated at 37°C and 5% CO2 overnight. […] Fifty comets were scored per sample using Comet Assay III/IV image analysis software (Perceptive Instruments, Bury St Edmonds, UK). […]

The test system of another assay is POLβ KO A2780cis cells. Put plainly: Annexin V apoptosis detection, POLβ KO A2780cis. As to conditions: FEN1i-treated. As to the method:
Apoptosis detection: Annexin V detection kit (556547, BD Biosciences) was used to quantify apoptotic cells. Briefly, cells were trypsinized, washed with PBS and the cellular pellet was re-suspended in Anexin Binding Buffer (1×). Following, FITC Anexin V and Propidium Iodide were added to the cells. After incubation, Anexin binding Buffer (1×) was added to each tube. All the samples were analysed on a Beckman-Coulter FC500 flow cytometer. The percentage of apoptotic cells was determined (late apoptotic = FITC-Annexin V positive, PI positive early apoptotic = FITC-Annexin V positive, PI negative; live cells = FITC-Annexin V negative, PI negative) and compared for untreated and treated samples. Graphical representation and statistical analysis was performed in GraphPad Prism 7 (GraphPad, La Jolla, USA).
3D Spheroid assays: A2780_control and A2780 FEN1_ KO as well as A2780cis_control and A2780cis FEN1_ KO cells were seeded at 4500 cells/cm2 density in ultra-low attachment 6-well plates (174932, Thermo Fisher Scientific) and cultured in 3D Tumorsphere Medium (C28070, PromoCell, UK) at 37°C in a 5% CO2 atmosphere. Cells were keep in culture for 7-10 days, toping up with fresh medium every two days until spheroids structures were formed.

For assay [2], the system named is XRCC1 deficient A2780cis cells. Put plainly: FEN1 inhibitor cytotoxicity, XRCC1 deficient A2780cis. The conditions noted are these: vs A2780cis control.
Another assay concerns PEO1 cells. Put plainly: γH2AX analysis, PEO1. The conditions noted are these: FEN1i monotherapy. Here is the method:
Graphical representation and statistical analysis of mean tail moment was performed in GraphPad Prism 6 (GraphPad, La Jolla, USA). All experiments were done in duplicate three times.
γH2AX FACS: For monitoring DNA double strand break accumulation by γH2AX FACS, 1.05×104 Cells/cm2 were seeded in 6-well plates and left overnight at 37°C in a 5% CO 2 atmosphere. Cisplatin (5µM) or FEN1i (10µM) was later added to cells and incubated for 24h and 48h at 37°C in a 5% CO2 atmosphere. Cells were collected by trypsinization, washed […]
with ice cold PBS and fixed in 70% ethanol for 1h at -20°C. After removal of the fixative solution by centrifugation, cells were stained with 2 µg/ml of phospho-Histone (γH2AX) Ser139 (16202A, Millipore, UK) to detect DSBs.
Cell cycle progression: Cells were treated with 20 µg/ml RNase A (12091021, Invitrogen) and then 10 µg/ml Propidium Iodide (P4170, Sigma Aldrich) was added to determine the cell cycle distribution. The samples were analysed on a Beckman-Coulter FC500 flow cytometer using a 488nm laser for excitation and emission data for PI collected using a 620nm bandpass filter (FL3) and a 525nm bandpass filter (FL1) for FITC-anti-phospho-Histone H2A.X. […]
Graphical representation and statistical analysis was performed in GraphPad Prism 7 (GraphPad, La Jolla, USA). […]

With `N.N.[Cl][Pt][Cl]` [cisplatin], the “FEN1 mRNA expression after cisplatin” value in assay [1] is “increased by day 1 and persisted at least until day 4”.

On to `Cc1csc2c1c(=O)n(O)c(=O)n2-c1ccccc1` [PTPD, 3-hydroxy-5-methyl-1-phenylthieno [2,3 d]pyrimidine-2,4(1H,3H)-dione], for which the apoptosis result in the assay with POLβ KO A2780cis cells is “apoptosis”. Further, the “sensitivity to FEN1 inhibitor” value in assay [2] is reported as “did not observe any increased sensitivity”. Further, the γH2AX foci entry with PEO1 cells is “increased γH2AX foci accumulation”.
